Tests used:
Purkinje cells = experiment: Neuroprotection of Purkinje cells in organotypic cerebellar slices (CaBP immunostaining); format: cell-based; conditions: 10 days in vitro, slices from P0 mouse
Protocol: (§1) Organotypic cerebellar slices were generated from brains of postnatal day 0 (P0) and P7 mouse pups. Briefly, cerebella were dissected and cut into 350 μm slices. Cerebellar slices from the vermis were collected and then cultured on Millicell cell culture inserts (Millipore) in 6-wellplates in a medium composed of 50% Basal Medium Eagle, 25% Hank solution (HBSS), 25% inactivated horse serum, 5 mg/ml high-glucose, 1 mM L-glutamine, 0.2% penicillin-streptomycin. Slices were incubated at 37° C. (5% CO2) for 10 days (slices from P0) or 3 days (slices from P7). The culture medium was replaced every 2-3 days. For immunohistochemistry, slices were fixed in 4% paraformaldehyde and immunostained for CaBP and MBP. Briefly, slices were incubated in 4% BSA/0.2% triton for 1 hour and next incubated overnight with the following primary antibodies: rabbit anti-CaBP (dilution: 1/10000) and rat anti-MBP (dilution: 1/250). After several washes in PBS 0.1M, slices were then incubated with the secondary antibodies (anti-rabbit alexaFluor555, anti-mouse alexaFluor488) and Dapi for 2 hours and finally washed in PBS 0.1M and mounted in Fluoromount medium. Flurorescence imaging were performed with a confocal microscopy NIKON A1R-HD25.
The neuroprotective effects of the drugs were assessed by evaluating the density of Purkinje cells in basal medium alone and in basal medium supplemented with VEGFRs inhibitors. Organotypic cerebellar slices obtained from P0 mouse (as described above) were cultured for 10 days in vitro in basal medium alone, or in the basal medium supplemented either with pan-VEGFRs inhibitors, VEGFR-2/3 specific inhibitor (Telatinib) or with VEGFR-1 selective and specific inhibitors (SU14813 and ZM306416), respectively. All compounds were used at 500 nM, except ZM306416 that was used at 30 μM. After treatments, slices were immunostained for CaBP, as described above.

rat primary OPC cultures [1] = experiment: OPC differentiation in rat primary OPC cultures (MBP+Sox10+ cells); format: cell-based; conditions: 500 nM, 5 days in vitro
Protocol: Rat primary OPC cultures were obtained from neonatal pups (P0-P1). Brains were dissected, cerebellar cortices and meninges were removed. Brain tissues were next mechanically and enzymatically dissociated. After filtration and centrifugation, mixed cells of astrocytes, microglia and OPCs was cultured in DMEM medium on polyornithine-coated flasks. After 13-14 days of culture, microglial cells were removed by shaking during 2 h. OPCs were next collected after 18 h of shaking, followed by differential adhesion. OPCs purification was validated by immunostaining of Olig2 and Sox10. To induce differentiation, cells were kept in proliferation medium (DMEM-F12, 1% PS, FGF, PDGF, 1% laminin, Biotin, 2% B27, N1 mix) for 24 h and then switched to a differentiation medium with the same composition but deprived of FGF and PDGF. Cells were incubated at 37° C. (5% CO2) for 5 days and the medium was partially replaced every 2 days. Cells were then fixed in 2% paraformaldehyde and immunostained with Sox10 and MBP. Cells were incubated for 2 hours with primary antibodies Sox10 (Goat 1/100) and MBP (Rabbit 1/500) diluted in 4% BSA in PBS 0.1M/0.1% Triton. After washes, cells were then incubated with the secondary antibody (anti-Goat Alexa647, anti-Rabbit Alexa488 and Dapi) for 1 hour and finally washed in PBS 0.1M and mounted in Fluoromount medium. […]
Oligodendrocytes differentiation was assessed by analyzing the fold increase of MBP^+Sox10^+ cells in treated conditions relative to the basal condition. The percentage of MBP^+Sox10^+ cells were quantified after treatments with pan-VEGFRs and selective VEGFR-1 antagonists and compared with the basal medium. […] Myelination was assessed using organotypic cerebellar slices generated from P7 mice cerebellum and the effect of VEGFRs sub-types antagonists on myelination was analyzed after immunostaining for Sox10 for oligodendroglia, MBP for myelin (white) and calbindin (gray). […] The myelination index for each condition was quantified as the percentage of MBP+CaBP+ axons over the total CaBP+ axonal surface area and normalized relatively to basal condition.

[2] = tested on: organotypic cerebellar slices; experiment: Myelination in organotypic cerebellar slices from P7 mice (MBP/CaBP); format: cell-based; conditions: 3 days ex vivo, slices from P7 mouse
Protocol: as §1
Oligodendrocytes differentiation was assessed by analyzing the fold increase of MBP^+Sox10^+ cells in treated conditions relative to the basal condition. The percentage of MBP^+Sox10^+ cells were quantified after treatments with pan-VEGFRs and selective VEGFR-1 antagonists and compared with the basal medium. Results are shown as differentiation fold increase relative to the basal condition. Myelination was assessed using organotypic cerebellar slices generated from P7 mice cerebellum and the effect of VEGFRs sub-types antagonists on myelination was analyzed after immunostaining for Sox10 for oligodendroglia, MBP for myelin (white) and calbindin (gray). Slices were cultured in basal medium (control condition), or in the basal medium supplemented either with 9cis-RA (used as a positive control of myelination) or with VEGFR-1 selective and specific inhibitor (SU14813 and ZM306416), respectively. All compounds were used at 500 nM, except ZM306416 that has been used at 30 μM. The myelination index for each condition was quantified as the percentage of MBP+CaBP+ axons over the total CaBP+ axonal surface area and normalized relatively to basal condition.

[3] = tested on: organotypic cerebellar slices; experiment: Myelination in organotypic cerebellar slices treated with VEGFR-1 blocking peptide; format: cell-based, mouse; conditions: 10 μM, from 5 to 10 days in vitro
Protocol: as §1
Mouse cerebellar slices were prepared as previously described. […]

rat primary OPC cultures [4] = experiment: OPC differentiation (Olig2+MBP+ cells/Olig2+ cells) after VEGFR-1 shRNA or blocking peptide; format: cell-based; conditions: blocking peptide vs control (basal medium), 5 days in differentiation medium
Protocol: Rat primary OPC cultures were obtained from neonatal pups (P0-P1). Brains were dissected, cerebellar cortices and meninges were removed. Brain tissues were next mechanically and enzymatically dissociated. After filtration and centrifugation, mixed cells of astrocytes, microglia and OPCs was cultured in DMEM medium on polyornithine-coated flasks. After 13-14 days of culture, microglial cells were removed by shaking during 2 h. OPCs were next collected after 18 h of shaking, followed by differential adhesion. OPCs purification was validated by immunostaining of Olig2 and Sox10. To induce differentiation, cells were kept in proliferation medium (DMEM-F12, 1% PS, FGF, PDGF, 1% laminin, Biotin, 2% B27, N1 mix) for 24 h and then switched to a differentiation medium with the same composition but deprived of FGF and PDGF. Cells were incubated at 37° C. […]
For RT-qPCR, transduction at MOI 8 and MOI 2 were used. […] For immunocytochemistry, transfection with MOI 4 was used and labelling with Olig2 and MBP to quantify Olig2+MBP+ differentiated oligodendrocytes.
Our data confirmed efficient lentivirus transduction with multiplicity of infection 4 (MOI 4) and knock-down of VEGFR-1 (FIG. 5A). […] To do so, we quantified Olig2+MBP+ differentiated oligodendrocytes over the total Olig2+ oligodendroglial cells (ratio of Olig2+MBP+ cells/Olig2+ cells) for each condition.

Compound | neuroprotection / number of Purkinje cells relative to basal condition (Purkinje cells; 500 nM) | number of SOX10+MBP+ differentiated oligodendrocytes relative to basal condition (rat primary OPC cultures [1]) | MBP+ mature oligodendrocytes in organotypic cerebellar slices ([2]; 500 nM) | further results
CNC(=O)c1cc(COc2nnc(Nc3ccc(Cl)cc3)c3ccoc23)ccn1 [Telatinib] | but not of VEGFR-2/3 (Telatinib), enhance neuroprotection | significant increase |  | 
CNC(=O)c1cccc2cc(Oc3ccnc4cc(OCC5(N)CC5)c(OC)cc34)ccc12 [Lucitanib] | higher number of Purkinje cells with respect to the basal condition | significant increase | numerous MBP^+ mature oligodendrocytes | 
COc1cc2ncnc(Nc3ccc(Cl)cc3F)c2cc1OC [ZM306416] |  |  |  | neuroprotection / number of Purkinje cells relative to basal condition (Purkinje cells; 30 μM): enhance neuroprotection of Purkinje cells; MBP+ mature oligodendrocytes in organotypic cerebellar slices ([2]; 30 μM): numerous MBP^+ mature oligodendrocytes; myelination index (density of myelinated axons) vs basal, 9 cis-RA, VEGFR-2/3 inhibitor and pan-VEGFR inhibitors ([2]; 30 μM): density of myelinated axons was higher
Cc1[nH]c(C=C2C(=O)Nc3ccc(F)cc32)c(C)c1C(=O)NC[C@H](O)CN1CCOCC1 [SU14813] | enhance neuroprotection of Purkinje cells | significant increase | numerous MBP^+ mature oligodendrocytes | myelination index (density of myelinated axons) vs basal, 9 cis-RA, VEGFR-2/3 inhibitor and pan-VEGFR inhibitors ([2]; 500 nM): density of myelinated axons was higher
GNQWFI [VEGFR-1-blocking peptide] |  |  |  | ex-vivo myelination (MBP+CaBP+ myelinated axons) [3]: enhances ex-vivo myelination; fold increase in the number of Olig2+MBP+ cells (rat primary OPC cultures [4]): 1.18±0.19 fold

— patent US20250346635A1, “VASCULAR ENDOTHELIAL GROWTH FACTOR RECEPTOR-1 (VEGFR-1) INHIBITORS FOR PROMOTING MYELINATION AND NEUROPROTECTION” (ICM (INSTITUT DU CERVEAU ET DE LA MOELLE ÉPINIÉRE), priority 2022, published 2025)
